The target of data set [1] is T1, Acetylcholinesterase (Electrophorus electricus, UniProt O42275). The experiment in a line: Inhibition of electric eel AChE using acetylthiocholine iodide as substrate incubated for 5 mins followed by substrate addition by Ellman's method.
Another data set deals with Carbonic anhydrase 2 (Homo sapiens, UniProt P00918). The experiment in a line: Binding affinity to human CA2 assessed as inhibition constant using p-nitrophenylacetate as substrate by spectrophotometry.
Data set [2] has as its target T2, Acetylcholinesterase (Homo sapiens, UniProt P22303). The data set is described as follows: Binding affinity to AChE (unknown origin) assessed as inhibition constant using acetylthiocholine iodide as substrate preincubated for 10 mins followed by substrate addition by Ellman's method.
In a further data set the target is Carbonic anhydrase 1 (Homo sapiens, UniProt P00915). The experiment in a line: Binding affinity to human CA1 assessed as inhibition constant using p-nitrophenylacetate as substrate by spectrophotometry.
For data set [3], the target named is T2, Acetylcholinesterase. The experiment in a line: Inhibition of human AChE using acetylthiocholine iodide as substrate preincubated for 10 mins followed by substrate addition by spectrophotometry.
In data set [4] the target is Fatty-acid amide hydrolase 1 (Rattus norvegicus, UniProt P97612). The experiment in a line: Displacement of [14C]-ethanolamine from FAAH derived from rat brain membrane fraction preincubated for 20 mins followed by susbstrate addition by scintillation counting method. The data set is classed as cell membranes. In general terms: Loss of bound radioactivity is the signal in a displacement assay; it reports binding, not function.

Data set [5] addresses T3, Cholinesterases; ACHE & BCHE (Homo sapiens) (UniProt P06276+P22303). The experiment in a line: Selectivity index, ratio of IC50 for recombinant human serum AChE to IC50 for recombinant human serum BChE. The data set is classed as protein assay.
Data set [6] concerns the target T4, Cholinesterase (Homo sapiens, UniProt P06276). The experiment in a line: Inhibition of recombinant human serum BChE using butyrylthiocholine iodide as substrate preincubated for 20 mins followed by substrate addition measured for 45 to 90 mins by Ellman's method.
A short description of data set [7]: Toxicity in mouse assessed as lethal dose. To be noted: in vivo.
Data set [8] has as its target T2, Acetylcholinesterase. The experiment in a line: Binding affinity to AChE (unknown origin) assessed as inhibition constant.
The target in data set [9] is T3, Cholinesterases; ACHE & BCHE (Homo sapiens). The experiment in a line: Selectivity index, ratio of IC50 for human plasma BChE to IC50 for human erythrocyte AChE. The data set is classed as protein assay.
The target in data set [10] is T4, Cholinesterase. The data set is described as follows: Inhibition of human plasma BChE using S-butyrylthiocholine as substrate by Ellman's method.
Data set [11] deals with T2, Acetylcholinesterase. The data set is described as follows: Inhibition of human erythrocyte AChE using acetyl-(beta-methyl)thiocholine as substrate by Ellman's method. Background: In Ellman's method for cholinesterases, released thiocholine reacts with DTNB.
Data set [12] deals with Acetylcholinesterase and butyrylcholinesterase (AChE and BChE) (Rattus norvegicus) (UniProt P37136+Q9JKC1). The data set is described as follows: Selectivity index, ratio of IC50 for rat serum BChE to IC50 for rat cortex AChE.
The target in data set [13] is T5, Acetylcholinesterase (Rattus norvegicus, UniProt P37136).
T5 sequence (P37136 whole entry): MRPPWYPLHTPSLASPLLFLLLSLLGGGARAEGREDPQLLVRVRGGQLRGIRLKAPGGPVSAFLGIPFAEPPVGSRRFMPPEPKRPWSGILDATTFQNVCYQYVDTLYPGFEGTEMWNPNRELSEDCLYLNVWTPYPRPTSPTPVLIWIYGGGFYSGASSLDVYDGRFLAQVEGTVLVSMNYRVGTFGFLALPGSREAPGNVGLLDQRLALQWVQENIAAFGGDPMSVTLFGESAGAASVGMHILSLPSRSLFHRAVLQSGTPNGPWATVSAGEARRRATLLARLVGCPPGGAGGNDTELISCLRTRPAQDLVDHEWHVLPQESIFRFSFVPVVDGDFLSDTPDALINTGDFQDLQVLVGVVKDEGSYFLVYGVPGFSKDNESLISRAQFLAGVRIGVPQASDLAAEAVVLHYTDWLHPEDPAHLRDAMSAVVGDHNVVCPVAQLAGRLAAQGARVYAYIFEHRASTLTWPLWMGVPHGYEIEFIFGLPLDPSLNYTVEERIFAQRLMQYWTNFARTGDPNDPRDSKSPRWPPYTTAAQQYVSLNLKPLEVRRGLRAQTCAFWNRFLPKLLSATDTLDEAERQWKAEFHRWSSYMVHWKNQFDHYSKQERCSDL
The experiment in a line: Inhibition of rat cortex AChE using acetylthiocholine iodide as substrate incubated for 15 mins by Ellman's method.

Data set [14] addresses T6, Butyrylcholinesterase (Rattus norvegicus, UniProt Q9JKC1). The experiment in a line: Inhibition of rat serum BChE using butyrylthiocholine iodide as substrate incubated for 15 mins by Ellman's method.
The target of data set [15] is T2, Acetylcholinesterase. The experiment in a line: Inhibition of human erythrocyte AChE using acetylthiocholine iodide as substrate preincubated for 6 mins followed by substrate addition measured upto 180 secs by Ellman's method.
For data set [16], the target named is T7, Amine oxidase [flavin-containing] A (Homo sapiens, UniProt P21397).
T7 sequence (P21397 whole entry): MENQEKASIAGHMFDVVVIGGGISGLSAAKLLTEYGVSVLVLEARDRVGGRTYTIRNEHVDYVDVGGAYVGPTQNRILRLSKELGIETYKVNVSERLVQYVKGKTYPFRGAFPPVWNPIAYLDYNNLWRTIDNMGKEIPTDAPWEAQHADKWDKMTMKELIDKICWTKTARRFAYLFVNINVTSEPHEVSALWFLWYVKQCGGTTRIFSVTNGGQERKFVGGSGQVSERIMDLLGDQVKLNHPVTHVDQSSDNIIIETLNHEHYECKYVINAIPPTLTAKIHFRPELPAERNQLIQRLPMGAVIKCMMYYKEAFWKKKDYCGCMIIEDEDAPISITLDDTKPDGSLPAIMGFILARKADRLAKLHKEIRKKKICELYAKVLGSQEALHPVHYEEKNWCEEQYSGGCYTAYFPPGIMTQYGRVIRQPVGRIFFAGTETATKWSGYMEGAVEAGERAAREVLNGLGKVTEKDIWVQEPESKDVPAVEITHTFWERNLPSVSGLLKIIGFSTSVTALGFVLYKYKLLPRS
The data set is described as follows: Inhibition of recombinant human MAO-A using p-tyramine as substrate preincubated for 15 mins followed by substrate addition measured upto 20 mins by Amplex red assay.

Data set [17] deals with High affinity cGMP-specific 3',5'-cyclic phosphodiesterase 9A (Homo sapiens, UniProt O76083). The experiment in a line: Inhibition of PDE9A (unknown origin).
The target in data set [18] is Cholinesterase (Equus caballus, UniProt P81908). The data set is described as follows: Inhibition of equine BChE.
For data set [19], the target named is T1, Acetylcholinesterase. The data set is described as follows: Inhibition of electric eel AChE using acetylthiocholine iodide as substrate preincubated for 5 mins followed by substrate addition measured after 2 mins by Ellman's method.
In another data set the target is Beta-secretase 1 (Homo sapiens, UniProt P56817). The data set is described as follows: Inhibition of BACE1 (unknown origin) using A-beta-PP as substrate by fluorescence based assay.
Data set [20] deals with T2, Acetylcholinesterase. The experiment in a line: Binding affinity to AChE (unknown origin) assessed as inhibition constant preincubated for 60 mins followed by substrate addition measured after 60 mins by colorimetric method.
Data set [21] has as its target T6, Butyrylcholinesterase. The data set is described as follows: Inhibition of Sprague-Dawley rat serum BChE using butyrylthiocholine iodide as substrate incubated for 15 mins by Ellman's method.
The target in data set [22] is T5, Acetylcholinesterase. The experiment in a line: Inhibition of Sprague-Dawley rat cortex AChE using acetylthiocholine iodide as substrate incubated for 15 mins in presence of iso-OMPA inhibitor by Ellman's method.

T2 sequence (P22303 whole entry): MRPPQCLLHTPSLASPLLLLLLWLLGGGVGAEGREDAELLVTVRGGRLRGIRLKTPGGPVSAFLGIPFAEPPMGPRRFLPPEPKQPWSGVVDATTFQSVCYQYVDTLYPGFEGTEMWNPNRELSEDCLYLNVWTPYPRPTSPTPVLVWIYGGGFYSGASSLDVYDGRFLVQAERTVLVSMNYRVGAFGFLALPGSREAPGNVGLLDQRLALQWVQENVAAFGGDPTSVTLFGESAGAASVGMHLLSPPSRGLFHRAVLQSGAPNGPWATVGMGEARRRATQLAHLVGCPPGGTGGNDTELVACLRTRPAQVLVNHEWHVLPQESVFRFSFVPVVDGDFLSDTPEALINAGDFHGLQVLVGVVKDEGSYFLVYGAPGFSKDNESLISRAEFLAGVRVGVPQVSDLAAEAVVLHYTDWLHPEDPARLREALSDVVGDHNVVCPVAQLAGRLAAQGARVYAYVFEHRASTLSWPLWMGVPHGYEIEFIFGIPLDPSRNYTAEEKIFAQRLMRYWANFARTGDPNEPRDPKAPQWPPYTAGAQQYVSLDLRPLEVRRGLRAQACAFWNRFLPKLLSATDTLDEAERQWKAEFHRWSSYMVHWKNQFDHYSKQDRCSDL
Sequence of Carbonic anhydrase 1 (P00915 whole entry): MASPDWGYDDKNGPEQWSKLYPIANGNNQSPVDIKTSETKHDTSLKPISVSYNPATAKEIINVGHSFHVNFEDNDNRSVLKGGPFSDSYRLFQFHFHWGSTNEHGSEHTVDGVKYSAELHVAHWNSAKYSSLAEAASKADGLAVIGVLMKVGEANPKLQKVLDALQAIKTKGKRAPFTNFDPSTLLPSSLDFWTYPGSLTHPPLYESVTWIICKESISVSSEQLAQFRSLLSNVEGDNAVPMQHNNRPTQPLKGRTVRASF
T4 sequence (P06276 whole entry): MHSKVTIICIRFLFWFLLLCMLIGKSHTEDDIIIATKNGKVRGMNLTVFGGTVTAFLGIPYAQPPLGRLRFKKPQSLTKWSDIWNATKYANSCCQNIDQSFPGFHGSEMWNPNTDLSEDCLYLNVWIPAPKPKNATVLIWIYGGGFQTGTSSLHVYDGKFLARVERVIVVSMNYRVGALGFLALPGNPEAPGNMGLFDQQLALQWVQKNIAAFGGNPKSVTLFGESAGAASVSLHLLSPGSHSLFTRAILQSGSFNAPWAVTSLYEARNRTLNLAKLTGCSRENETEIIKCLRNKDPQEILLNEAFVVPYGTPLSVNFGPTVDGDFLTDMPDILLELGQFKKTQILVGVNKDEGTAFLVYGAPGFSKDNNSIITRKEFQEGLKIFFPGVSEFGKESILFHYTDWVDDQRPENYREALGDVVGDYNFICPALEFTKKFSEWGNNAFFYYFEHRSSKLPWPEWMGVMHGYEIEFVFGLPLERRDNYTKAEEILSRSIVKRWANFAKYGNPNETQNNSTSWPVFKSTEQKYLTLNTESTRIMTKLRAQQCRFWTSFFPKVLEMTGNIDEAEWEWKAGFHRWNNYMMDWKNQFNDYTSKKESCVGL
T3 sequence (P06276 whole entry, looked up): as the sequence (P06276 whole entry) above
T3 sequence (P22303 whole entry, looked up): as the sequence (P22303 whole entry) above
T1 sequence (O42275 whole entry): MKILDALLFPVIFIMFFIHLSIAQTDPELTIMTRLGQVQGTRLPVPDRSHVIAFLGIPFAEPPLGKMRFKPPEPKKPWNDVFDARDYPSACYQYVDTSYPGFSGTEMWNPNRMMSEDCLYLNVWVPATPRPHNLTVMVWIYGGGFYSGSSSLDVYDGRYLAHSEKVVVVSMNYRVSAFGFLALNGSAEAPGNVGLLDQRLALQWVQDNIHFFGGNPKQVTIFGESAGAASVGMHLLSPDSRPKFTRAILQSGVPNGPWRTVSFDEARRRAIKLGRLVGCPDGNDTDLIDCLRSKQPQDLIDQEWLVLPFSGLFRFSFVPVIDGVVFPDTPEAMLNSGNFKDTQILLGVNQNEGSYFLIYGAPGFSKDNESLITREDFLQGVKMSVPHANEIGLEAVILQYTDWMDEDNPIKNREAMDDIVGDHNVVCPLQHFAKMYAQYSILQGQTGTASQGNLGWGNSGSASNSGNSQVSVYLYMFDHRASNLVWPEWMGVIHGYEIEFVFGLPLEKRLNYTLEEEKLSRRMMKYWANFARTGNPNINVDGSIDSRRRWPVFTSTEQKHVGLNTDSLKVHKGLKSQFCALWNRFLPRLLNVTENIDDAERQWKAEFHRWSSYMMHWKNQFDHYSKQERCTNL
T6 sequence (Q9JKC1 whole entry): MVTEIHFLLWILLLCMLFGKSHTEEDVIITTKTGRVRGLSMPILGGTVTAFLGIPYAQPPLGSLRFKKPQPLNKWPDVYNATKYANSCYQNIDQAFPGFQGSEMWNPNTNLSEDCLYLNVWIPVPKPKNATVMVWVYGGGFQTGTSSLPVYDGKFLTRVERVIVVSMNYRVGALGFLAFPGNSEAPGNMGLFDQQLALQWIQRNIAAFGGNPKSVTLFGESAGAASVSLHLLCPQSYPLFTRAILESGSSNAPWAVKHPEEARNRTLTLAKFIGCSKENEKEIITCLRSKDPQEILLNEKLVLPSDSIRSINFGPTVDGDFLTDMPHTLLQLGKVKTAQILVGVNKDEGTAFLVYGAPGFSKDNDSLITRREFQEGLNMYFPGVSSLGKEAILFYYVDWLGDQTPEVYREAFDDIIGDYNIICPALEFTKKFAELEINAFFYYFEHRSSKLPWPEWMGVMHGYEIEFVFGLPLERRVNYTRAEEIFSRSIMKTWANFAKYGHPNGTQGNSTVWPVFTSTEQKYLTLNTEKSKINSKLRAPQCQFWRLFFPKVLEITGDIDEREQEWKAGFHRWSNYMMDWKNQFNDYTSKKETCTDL
Sequence of Acetylcholinesterase and butyrylcholinesterase (AChE and BChE) (Rattus norvegicus) (Q9JKC1 1-597, one chain of several): as the sequence (Q9JKC1 whole entry) above
Sequence of Cholinesterase (Equus caballus, UniProt P81908) (P81908 whole entry): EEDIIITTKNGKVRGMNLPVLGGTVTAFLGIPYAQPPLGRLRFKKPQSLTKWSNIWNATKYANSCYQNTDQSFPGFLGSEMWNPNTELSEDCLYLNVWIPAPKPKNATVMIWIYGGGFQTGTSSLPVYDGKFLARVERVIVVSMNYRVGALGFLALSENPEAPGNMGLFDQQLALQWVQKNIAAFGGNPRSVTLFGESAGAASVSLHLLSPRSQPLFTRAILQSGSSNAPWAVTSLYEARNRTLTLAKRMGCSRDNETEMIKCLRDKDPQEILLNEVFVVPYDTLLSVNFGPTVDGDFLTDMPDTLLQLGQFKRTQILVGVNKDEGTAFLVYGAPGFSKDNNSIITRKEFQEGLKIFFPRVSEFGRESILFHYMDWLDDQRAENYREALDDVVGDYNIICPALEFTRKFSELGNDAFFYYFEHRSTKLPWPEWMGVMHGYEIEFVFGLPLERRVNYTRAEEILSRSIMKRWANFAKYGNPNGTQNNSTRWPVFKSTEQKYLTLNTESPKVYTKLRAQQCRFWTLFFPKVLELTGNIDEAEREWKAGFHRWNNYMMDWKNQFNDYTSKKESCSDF
Sequence of High affinity cGMP-specific 3',5'-cyclic phosphodiesterase 9A (O76083 whole entry): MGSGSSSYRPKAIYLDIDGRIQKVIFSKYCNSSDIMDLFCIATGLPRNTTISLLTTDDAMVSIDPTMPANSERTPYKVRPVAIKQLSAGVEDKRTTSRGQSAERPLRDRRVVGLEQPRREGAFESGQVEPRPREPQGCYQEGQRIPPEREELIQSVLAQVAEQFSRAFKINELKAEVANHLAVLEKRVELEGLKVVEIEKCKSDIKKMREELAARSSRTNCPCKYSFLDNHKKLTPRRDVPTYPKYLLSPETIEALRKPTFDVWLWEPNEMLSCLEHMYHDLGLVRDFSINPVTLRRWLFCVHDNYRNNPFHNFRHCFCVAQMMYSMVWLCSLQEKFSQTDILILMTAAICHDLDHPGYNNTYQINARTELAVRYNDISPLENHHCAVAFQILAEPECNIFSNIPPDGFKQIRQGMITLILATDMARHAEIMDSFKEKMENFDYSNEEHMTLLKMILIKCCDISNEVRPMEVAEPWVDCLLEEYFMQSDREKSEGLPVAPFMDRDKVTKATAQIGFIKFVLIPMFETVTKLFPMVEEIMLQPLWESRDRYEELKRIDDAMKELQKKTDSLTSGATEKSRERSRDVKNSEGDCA
Sequence of Fatty-acid amide hydrolase 1 (P97612 whole entry): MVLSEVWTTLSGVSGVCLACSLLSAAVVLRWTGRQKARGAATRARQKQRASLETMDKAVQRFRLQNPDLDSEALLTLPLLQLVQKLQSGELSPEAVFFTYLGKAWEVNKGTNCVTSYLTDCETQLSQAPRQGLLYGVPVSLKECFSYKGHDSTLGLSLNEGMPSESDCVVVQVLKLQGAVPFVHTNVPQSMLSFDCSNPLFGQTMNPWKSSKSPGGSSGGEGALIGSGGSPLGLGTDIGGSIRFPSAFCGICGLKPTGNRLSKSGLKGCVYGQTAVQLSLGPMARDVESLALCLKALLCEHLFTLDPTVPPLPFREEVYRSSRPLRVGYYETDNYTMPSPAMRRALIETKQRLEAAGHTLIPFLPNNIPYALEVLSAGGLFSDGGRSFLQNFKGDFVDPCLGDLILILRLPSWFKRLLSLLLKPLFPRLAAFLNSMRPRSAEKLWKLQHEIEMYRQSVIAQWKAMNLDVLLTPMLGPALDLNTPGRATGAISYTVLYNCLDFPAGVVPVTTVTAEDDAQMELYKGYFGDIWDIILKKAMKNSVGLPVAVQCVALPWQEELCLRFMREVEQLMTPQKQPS

As to `COc1cc2c(cc1OC)C(=O)C(Cc1ccc(OC(=O)Nc3ccc(Cl)cc3)cc1)C2` (stereo not drawn), the half-inhibitory concentration (IC50) (as a rule, the concentration that gives 50% inhibition) on Acetylcholinesterase [1] was found to be 4.64 µM.

In the case of `COc1cccc2c1CCC(NC(=O)OCc1ccccc1)C2` (stereo not drawn), the figures for the Ki on Carbonic anhydrase 2, at Acetylcholinesterase [2] and on Carbonic anhydrase 1 were 0.00739 µM, 0.000264 µM and 0.00589 µM, respectively.

`CCOC(=O)C1=CN(C)c2cccc(OC(=O)N(C)C)c2C1` registered an IC50 at Acetylcholinesterase [3] of more than 1000 µM.

`CN(CCCOc1ccc2ccc(=O)oc2c1)Cc1cccc(OC(=O)NC2CCCC2)c1`: the concentration for half-maximal inhibition (IC50) was 0.00253 µM in [4] and 0.00642 µM at Cholinesterase [6]. The Ratio IC50 in data set [5] worked out at 61.9.

`CCCCCCCNC(=O)Oc1ccc2c(c1)[C@]1(C)CCN(C)[C@@H]1N2C` [EPTASTIGMINE]: the LD50 (commonly the dose expected to kill half of the subjects tested) in data set [7] was 35 mg/kg. In addition, at Acetylcholinesterase [8], the inhibitory constant (Ki) (usually a dissociation constant, usually derived from enzyme kinetics or from competition with a known ligand) came to 0.1 µM.

For `CNC(=O)Oc1ccc2c(c1)[C@]1(C)CCO[C@@H]1N2C`, the Ratio IC50 in data set [9] was 27. In addition, the IC50 at Cholinesterase [10] is 0.0067 µM; against Acetylcholinesterase [11], 0.004 µM.

Consider `CCNC(=O)Oc1ccc(-c2cc(=O)c3c(O)c(O)c(O)cc3o2)cc1`, for which the Ratio IC50 in data set [12] amounted to 18.4. Also, the IC50 on Acetylcholinesterase [13] worked out at 1.2 µM; at Butyrylcholinesterase [14], 22.1 µM.

On to `Cc1c(Cl)c(=O)oc2cc(OCCCCSC(=S)N3C(C)CCCC3C)ccc12` (stereo not drawn), for which the IC50 at Acetylcholinesterase [15] stood at 0.114 µM; in data set [16], 5.85 µM.

With `CCN(C)C(=O)Oc1ccc(CNc2nc3c(cnn3C3CCCC3)c(=O)[nH]2)cc1OC`, the IC50 in data set [17] turned out to be 0.014 µM; against Cholinesterase [18] it was 3.3 µM.

Turning to `COc1cccc2c1CCCC2NS(=O)(=O)NC(=O)OCc1ccccc1` (stereo not drawn), the half-maximal inhibitory concentration (IC50) on Carbonic anhydrase 2 worked out at 0.00494 µM; on Acetylcholinesterase [2] it was 0.000209 µM; on Carbonic anhydrase 1, 0.00449 µM.

Regarding `CCOC(=O)Nc1ccc(N2CCN(c3ccccc3OC)CC2)cc1`, on Acetylcholinesterase [19], the 50% inhibitory concentration (IC50) is 0.0935 µM.

In turn, `CC(C)(C)OC(=O)Nc1ccc(O)c(C(=O)NCCCN2CCCCC2)c1` registered an IC50 against Beta-secretase 1 of 0.0151 µM. Moreover, at Acetylcholinesterase [20], the Ki was 0.12 µM.

With `O=C(Oc1ccc(/C=C/c2cc(OC(=O)N3CCN(Cc4ccccc4)CC3)cc(OC(=O)N3CCN(Cc4ccccc4)CC3)c2)cc1)N1CCN(Cc2ccccc2)CC1`, the results for the 50% inhibitory concentration (IC50) on Butyrylcholinesterase [21] and on Acetylcholinesterase [22] were 1.13 µM and 4.11 µM, respectively.
